From paper PMC6522912, “Evaluation of the published kinase inhibitor set to identify multiple inhibitors of bacterial ATP-dependent mur ligases” (Journal of Enzyme Inhibition and Medicinal Chemistry, 2019)
Read-outs that look alike come from different tables or passages of the source.

Key:
[1] = molecular target: E. coli MurC (Escherichia coli, UniProt P17952); assay: Malachite green inhibition assay, MurC; type: biochemical; conditions: for remaining activity at 100 µM: 0.25 h
Protocol: (§1) Inhibition of the Mur ligases was determined using the malachite green assay, with slight modifications.
(§2) In all cases, the final concentration of DMSO was 5% (v/v). After incubation for 15 min at 37 °C, the enzyme reaction was terminated by addition of 100 µM Biomol green reagent, and the absorbance was measured at 650 nm after 5 min. All of the experiments were run in duplicate. Residual activities were calculated with respect to control assays without the tested compounds, but with the 5% DMSO carrier.
(§3) The published kinase inhibitor set compounds were evaluated for inhibition of MurC, D and F ligases from E. coli using the Malachite green assay, which detects orthophosphate generated during enzymatic reactions. To avoid non-specific inhibition due to aggregate formation, all of the compounds were tested in the presence of detergent (0.005% Triton-X114). The data are presented as the residual activities of these Mur ligases in the presence of 100 µM of each test compound (Supporting Information Table S1). […] Additionally, regarding the data of profiled compounds in large panels of human kinase assays[41]

[2] = molecular target: E. coli MurD (Escherichia coli, UniProt P14900); assay: biochemical; conditions: for remaining activity at 100 µM: 0.25 h, Table S1, PKIS screening, read-out: RA [%] at 100 µM MurD; for IC50: printed in the RA cell of Table S1, read-out: IC50 MurD
Protocol: as §1, §2
The published kinase inhibitor set compounds were evaluated for inhibition of MurC, D and F ligases from E. coli using the Malachite green assay, which detects orthophosphate generated during enzymatic reactions. To avoid non-specific inhibition due to aggregate formation, all of the compounds were tested in the presence of detergent (0.005% Triton-X114). The data are presented as the residual activities of these Mur ligases in the presence of 100 µM of each test compound (Supporting Information Table S1).

[3] = molecular target: E. coli MurF (Escherichia coli, UniProt P11880); assay: biochemical; conditions: for remaining activity at 100 µM: 0.25 h, Table S1, PKIS screening, read-out: RA [%] at 100 µM MurF
Protocol: as §1, §2, §3

[4] = Table S1, PKIS screening, read-out: RA [%] at 100 µM MurC
[5] = Table S3, aza stilbene compounds

Sequence of E. coli MurD (P14900 whole entry): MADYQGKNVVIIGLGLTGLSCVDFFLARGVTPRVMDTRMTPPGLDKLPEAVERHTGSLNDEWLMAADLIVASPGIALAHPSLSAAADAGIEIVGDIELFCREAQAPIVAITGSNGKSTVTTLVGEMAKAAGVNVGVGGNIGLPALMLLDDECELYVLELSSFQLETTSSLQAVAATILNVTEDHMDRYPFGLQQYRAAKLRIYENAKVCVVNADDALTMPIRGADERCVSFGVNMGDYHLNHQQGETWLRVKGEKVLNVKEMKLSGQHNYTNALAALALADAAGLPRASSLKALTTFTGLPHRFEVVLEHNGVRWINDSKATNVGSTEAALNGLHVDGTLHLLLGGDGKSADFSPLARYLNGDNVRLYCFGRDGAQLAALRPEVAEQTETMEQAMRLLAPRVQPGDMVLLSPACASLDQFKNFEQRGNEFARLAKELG
Sequence of E. coli MurC (P17952 whole entry): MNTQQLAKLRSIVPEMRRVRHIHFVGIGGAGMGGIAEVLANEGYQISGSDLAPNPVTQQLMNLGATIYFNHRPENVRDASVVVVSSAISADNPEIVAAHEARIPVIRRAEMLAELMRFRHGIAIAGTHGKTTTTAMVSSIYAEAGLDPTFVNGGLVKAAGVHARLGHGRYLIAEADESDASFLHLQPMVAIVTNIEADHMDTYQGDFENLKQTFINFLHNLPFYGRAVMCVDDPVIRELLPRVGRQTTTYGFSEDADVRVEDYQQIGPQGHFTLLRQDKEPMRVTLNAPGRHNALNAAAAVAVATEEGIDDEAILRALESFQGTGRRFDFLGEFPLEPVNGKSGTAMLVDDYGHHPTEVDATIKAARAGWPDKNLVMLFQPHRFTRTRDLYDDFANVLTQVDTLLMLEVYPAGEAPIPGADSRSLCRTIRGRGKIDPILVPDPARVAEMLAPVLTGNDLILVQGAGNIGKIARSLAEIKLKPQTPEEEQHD
Sequence of E. coli MurF (P11880 whole entry): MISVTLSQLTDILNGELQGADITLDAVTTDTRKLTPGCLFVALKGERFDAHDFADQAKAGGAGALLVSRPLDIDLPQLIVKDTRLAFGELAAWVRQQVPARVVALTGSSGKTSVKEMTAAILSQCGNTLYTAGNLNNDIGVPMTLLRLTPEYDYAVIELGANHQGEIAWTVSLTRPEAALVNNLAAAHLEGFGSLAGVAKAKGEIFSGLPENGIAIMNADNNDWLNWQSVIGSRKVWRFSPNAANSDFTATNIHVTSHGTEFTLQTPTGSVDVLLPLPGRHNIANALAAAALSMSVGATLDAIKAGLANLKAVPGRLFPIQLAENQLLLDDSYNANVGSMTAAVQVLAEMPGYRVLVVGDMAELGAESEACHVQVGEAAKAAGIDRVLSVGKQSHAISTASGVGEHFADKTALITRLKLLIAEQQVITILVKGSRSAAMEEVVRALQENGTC

SMILES | remaining activity at 100 µM [1, 4] [%] | remaining activity at 100 µM [2] [%] | remaining activity at 100 µM [3] [%] | other results
COc1cc(Nc2nccc(Nc3ccc4c(C)n[nH]c4c3)n2)cc(OC)c1OC [GW612286X] | 86 | 94 | 100 | 
COc1cc(C=NNc2ncnc3c2cnn3-c2ccccc2)ccc1O [GW513184X] | 89 | 86 | 78 | 
COc1cc2ncn(-c3cc(OCc4ccccc4C(F)(F)F)c(C(=O)N(C)C)s3)c2cc1OC [GSK1030062A] | 68 | 76 | 63 | 
CN(C)c1ccc2c(c1)/C(=C/Nc1ccc(S(N)(=O)=O)cc1)C(=O)N2 [GW416469X] | 76 | 89 | 79 | 
O=C(Nc1ccc(Oc2ccc3nc(NC(=O)c4ccccc4)[nH]c3c2)cc1)Nc1cc(C(F)(F)F)ccc1F [GW709042A] | 100 | 95 | 100 | 
COc1ccc(C2=C(N3CCc4ccccc43)C(=O)NC2=O)cc1 [SB-361058] | 100 | 100 | 97 | 
CCS(=O)(=O)c1ccc(OC)c(Nc2ncc(-c3cccc(F)c3)o2)c1 [GW621970X] | 76 | 55 | 89 | 
COc1cccc(-n2cnc3c(N/N=C/c4ccncc4)ncnc32)c1 [GW813360X] | 65 | 84 | 81 | 
COc1cc2ncn(-c3cc(OCc4ccccc4C(F)(F)F)c(C(N)=O)s3)c2cc1OC [GW843682X] | 65 | 82 | 83 | 
Nc1ncnc2occ(-c3ccc(NC(=O)Nc4cc(C(F)(F)F)ccc4F)cc3)c12 [GW770249A] | 60 | 83 | 63 | 
COC(=O)Nc1nc2ccc(S(=O)(=O)c3ccc(NC(=O)Nc4cc(C(F)(F)F)ccc4F)cc3)cc2[nH]1 [GW680908A] | 77 | 69 | 97 | 
Nc1nonc1-c1nc2cnccc2n1C1CCCCC1 [SB-734117] | 100 | 79 | 93 | 
Cc1ccc(Nc2ccnc(Nc3cccc(C(N)=O)c3)n2)cc1O [GW575808A] | 100 | 89 | 100 | 
COc1cc2ncnc(Nc3ccc(C)c(O)c3)c2cc1OC [GW410563A] | 60 | 92 | 100 | 
CN1CCN(C(=O)c2ccc(NC(=O)Nc3ccc(N(C)c4ccnc(Nc5ccc(CS(C)(=O)=O)cc5)n4)cc3)cc2)CC1 [GW830263A] | 51 | 69 | 73 | 
COc1cccc(-n2ncc3c(N/N=C/c4ccc(S(C)(=O)=O)cc4)ncnc32)c1 [GW811168X] | 57 | 87 | 35 | 
CCCN1CCC(c2ccc(Nc3nc(Nc4cc(F)ccc4C(N)=O)c4cc[nH]c4n3)c(OC)c2)CC1 [GSK1326255A] | 0 | 9 | 4 | IC50 [2]: 39 µM
CN(C)c1cc2c(Nc3ccc4nc(Cc5ccccc5)[nH]c4c3)ncnc2cn1 [GW301888X] | 83 | 80 | 75 | 
COc1ccccc1-c1cc(/C=C2\C(=O)Nc3ncc(Br)cc32)cc(Br)c1O [GW442130X] | 100 | 84 | 67 | 
CC(C)c1ccc2c(c1)NC(=O)C2=NNc1ccc(S(N)(=O)=O)cc1 [GW300653X] | 100 | 85 | 75 | 
COc1cc2ncn(-c3cc(OCc4cccs4)c(C(N)=O)s3)c2cc1OC [GSK312948A] | 98 | 72 | 79 | 
O=C1NC(=O)C(c2ccccc2Cl)=C1Nc1cccc(O)c1 [SB-390527] | 50 | 83 | 88 | 

SMILES | remaining activity at 100 µM [1, 4] [%] | remaining activity at 100 µM [2] [%] | remaining activity at 100 µM [3] [%] | other results
Fc1cccc(COc2ccc(Nc3ncnc4sc(-c5cccs5)cc34)cc2Cl)c1 [GW684626B] | 59 | 75 | 100 | 
CCn1c(-c2nonc2N)nc2ccc(F)cc21 [GW785404X] | 100 | 88 | 79 | 
CC1(C)CC(n2cnc(-c3ccc(F)cc3)c2-c2ccnc(N)n2)CC(C)(C)N1 [SB-221466] | 91 | 93 | 100 | 
C/C(Nc1ccc(S(N)(=O)=O)cc1)=C1/C(=O)Nc2ccccc21 [GW335962X] | 72 | 76 | 88 | 
CS(=O)(=O)CCN(CC#N)Cc1ccc(-c2ccc3ncnc(Nc4ccc(OCc5cccc(F)c5)c(Cl)c4)c3c2)o1 [GW616030X] | 76 | 59 | 80 | 
CCn1c(-c2nonc2N)nc2c(C#CC(C)(C)O)ncc(OC3CCNCC3)c21 [GSK619487A] | 77 | 86 | 100 | 
Fc1cccc(COc2ccc(Nc3ncncc3C#Cc3ccccc3)cc2Cl)c1 [GW651576X] | 44 | 43 | 91 | IC50 ([1]; printed in the RA cell of Table S1, read-out: IC50 MurC): 120 µM; IC50 [2]: 90 µM
CC1=C(C(=O)Nc2ccc3[nH]ncc3c2)C(c2ccc(Cl)c(Cl)c2)CC(=O)N1 (stereo not drawn) [GSK299115A] | 78 | 96 | 68 | 
COc1ccccc1Nc1ncc(-c2ccccc2)o1 [GW577921A] | 71 | 84 | 76 | 
COc1ccc(-c2cc3c(N)ncnc3o2)cc1 [GW642138X] | 74 | 93 | 81 | 
COc1cc(N2CCN(C(C)C)CC2)ccc1Nc1nc(Nc2ccc(F)cc2C(N)=O)c2cc[nH]c2n1 [GSK1220512A] |  | 48 | 54 | remaining activity at 100 µM ([1]; read-out: RA [%] at 100 µM MurC, Table S1, PKIS screening): 2%
CCN(CC)Cc1ccc(Nc2nccc(-c3cnn4ncccc34)n2)cc1 [GW780056X] | 78 | 78 | 88 | 
CCc1cccc(CC)c1C=Cc1cncc(C(=O)NC)c1 [Compound 12] |  |  |  | RA (%) MurC [1, 5]: 67%; RA (%) MurD [2]: 74%; RA (%) MurF [3, 5]: 76%
O=C1Nc2ccc(I)cc2C1=Cc1cc(Br)c(O)c(Br)c1 [GW305074X] | 100 | 92 | 78 | 
CCS(=O)(=O)c1ccc(OC)c(Nc2ncc(-c3cccc(C(C)=O)c3)o2)c1 [GW621431X] | 68 | 93 | 73 | 
O=S(=O)(CCNCc1ccc(-c2ccc3ncnc(Nc4ccc(OCc5cccc(F)c5)c(Cl)c4)c3c2)o1)c1ccccc1 [GW633459A] | 100 | 80 | 84 | 
CNC(=O)c1cncc(/C=C/c2ccccc2C)c1 [GW445015X] | 100 | 91 | 85 | 
c1ccc(Nc2ncc(-c3ccccc3)o2)cc1 [GW549390X] | 85 | 92 | 93 | 
COc1cccc(/C=N/Nc2ncnc3c2cnn3-c2cccc(OC)c2)c1 [GW829874X] | 69 | 78 | 85 | 
Nc1ncnc2occ(-c3ccc(NC(=O)Nc4cc(C(F)(F)F)cc(C(F)(F)F)c4)cc3)c12 [GW795486X] | 36 | 57 | 71 | 
O=C1Nc2ccccc2/C1=C/Nc1ccc2[nH]c(=O)[nH]c2c1 [GW284408X] | 105 | 86 | 86 | 
CC(C)COC(=O)c1ccc2c(c1)/C(=C/Nc1ccc(S(N)(=O)=O)cc1)C(=O)N2 [GW416981X] | 60 | 100 | 67 | 
